This is an account of results in patent US10709723B2, “Pharmaceutical anti-infective composition for inhalation” (GALEPHAR PHARMACEUTICAL RESEARCH, INC., priority 2006, dated 2020).

Values after ≈ are worked out from the molar mass of the structure shown. Read-outs that look alike come from different tables or passages of the source.

Data set [1] is described as follows: In vitro lung deposition, Multistage Liquid Impinger (MLI). It is filed as physicochemical. The following applies: for lung concentration obtained per capsule: composition of example 6, epithelial liquid in the lung estimated at about 100 ml. The source says: The amount of macrolide agent inhaled shall be high enough to affect, in some way, the biofilm. It has to be noted that as the effect of macrolide derivatives on the biofilm is mediated through a non-antibacterial mechanism. […] Nevertheless, it is a another object of the present invention to provide a composition containing high concentrations (or amounts) of each of the aminoglycoside derivative and of the macrolide derivative i.e. at least more than 10%, preferably more than 15%, and more preferably more than 20% of the dry powder composition. It is indeed particularly interesting to achieve high lung doses of those therapeutic agents with the minimum amounts of inhalations because it makes the administration easier and more importantly increase the patient's compliance. It also decreases the nominal dose of each active ingredient and thus the adverse effects linked to these actives. In the present invention, the dry powder inhaler also provides a high Fine Particle Dose (FPD) and Fine Particle […] (FPF) when tested in vitro on a Multistage Liquid Impinger (MLI, Eur. Pharm, 5th Edition, chapter 2.9.18). The FPD and FPF are the parameters that predict in vivo lung deposition.
The in vitro lung deposition test was performed using equipment and conditions as described in the European Pharmacopoeia (5th edition, chapter 2.9.18—apparatus C). This equipment consists of a Multistage Liquid Impinger (MLI) and was operated with an air flow of 100 L/min during a period of time of 2.4 seconds to simulate inhalation capabilities of patients. The quantification of the deposition of each drug on each stage of the MLI was performed by HPLC equipped with a a Corona detector.

For data set [2], the system named is planktonic Pseudomonas aeruginosa. The data set is described as follows: MIC on planktonic bacteria (NCCLS dilution standard). It counts as cell-based. The protocol:
The determination of the minimal inhibitory concentration (MIC) is performed according to the standard of NCCLS (NCCLS, Methods for dilution Antimicrobial Susceptibility Tests for bacteria that grow aerobically; approved standards, sixth edition, M7-A6, vol. 23 no. 2, January 2003.

The test system of data set [3] is 12 day biofilm of Pseudomonas aeruginosa. Nature of the data set: Bacterial count (CFU/ml) of 12-day biofilm after 24 hours with the products. As to conditions: tobramycin 4 μg/ml alone; clarithromycin 100, 200 and 500 μg/ml alone; all combinations. It counts as cell-based. From the text: Biofilms of Pseudomonas aeruginosa—strain PY O1 were formed according to the methods described by Ceri et al, the calgary biofilm device: new technology for rapid determination of antibiotic susceptibilities of bacterial biofilms, Journal of clinical microbiology, pp. 1771-1776, 1999 and Abdi-Ali et al, bactericidal activity of various antibiotics against biofilm-producing Pseudomonas aeruginosa, International Journal of Antimicrobial Agents 27, 196-200, 2006.
PY O1: is a cystic Fibrosis clinical mucoid strain of Pseudomonas aeruginosa received from the Erasme Hospital, Brussels.
After having shown that the number of Pseudomonas aeruginosa within the biofilms was stable after 12 days, the products listed in Table 1 were added to the media for the duration of 24 hours. Thereafter the biofilm was rinsed three times with a 0.01M phosphate buffer adjusted at pH 7.5 in order to remove all cells not bound to the biofilm. The microplate was then placed on ultrasonic bath at 35° C. for 5 minutes to allow the bacteria present in the biofilm to separate from such biofilm. A bacterial count was then performed (number of coloning forming unit CFU/ml). Each experience was done twice and the CFU counting was also repeated twice/experience.

Setting [4] is: composition of example 6, 10 mg/capsule, MLI 100 L/min, Mean (n = 3).
The mark [5] stands for this setting: composition of example 6, 10 mg/capsule, MLI 100 L/min, run MLI1.
[6] abbreviates: composition of example 6, 10 mg/capsule, MLI 100 L/min, run MLI2.
Setting [7] is: composition of example 6, 10 mg/capsule, MLI 100 L/min, run MLI3.

With `CC[C@H]1OC(=O)[C@H](C)[C@@H](O[C@H]2C[C@@](C)(OC)[C@@H](O)[C@H](C)O2)[C@H](C)[C@@H](O[C@@H]2O[C@H](C)C[C@H](N(C)C)[C@H]2O)[C@](C)(OC)C[C@@H](C)C(=O)[C@H](C)[C@@H](O)[C@]1(C)O` [Clarithromycin], the FPD in data set [1] (setting [4]) is 3.63 mg; in data set [1] (setting [5]), 3.14 mg; in data set [1] (setting [6]), 3.76 mg; in data set [1] (setting [7]), 3.98 mg. The molecule further returned a Filter deposition in data set [1] (setting [4]) of 0.550 mg. Besides, the “Stage 2 deposition” value in data set [1] (setting [7]) stood at 0.680 mg. Also, in data set [1], the “lung concentration obtained per capsule” value is 36.3 µg/mL. Also, the MIC result in data set [2] is “not sensitive”. In data set [3], the “Decrease of the number of CFU/ml of the 12-day biofilm versus the positive control” value was “neither tobramycin 4 μg/ml nor clarithromycin at 100, 200 and 500 μg/ml alone are able to decrease the number of CFU/ml”.

For the molecule `NC[C@H]1O[C@H](O[C@H]2[C@H](O)[C@@H](O[C@H]3O[C@H](CO)[C@@H](O)[C@H](N)[C@H]3O)[C@H](N)C[C@@H]2N)[C@H](N)C[C@@H]1O` [Tobramycin], the FPD is listed as 4.26 mg in data set [1] (setting [4]), 3.60 mg in data set [1] (setting [5]), 4.45 mg in data set [1] (setting [6]) and 4.72 mg in data set [1] (setting [7]). Besides, the Filter deposition in data set [1] (setting [4]) is recorded as 0.760 mg. For the same molecule, in data set [1], the “lung concentration obtained per capsule” value is 42.6 µg/mL. Also, the MIC in data set [2] (read-out: MIC) was 3.9 µg/mL (≈ 8.34 µM). Also, in data set [3], the “Decrease of the number of CFU/ml of the 12-day biofilm versus the positive control” value is “neither tobramycin 4 μg/ml nor clarithromycin at 100, 200 and 500 μg/ml alone are able to decrease the number of CFU/ml”.

As usually defined, the MIC is the lowest concentration that inhibits growth of the organism.
